Experimental data as given in patent publication US20070178436A1, “Method of inactivating virus in circular blood and its applications in treating viral diseases” (Beijing Jingjing Medical Equipment CO., Ltd., priority 2003, published 2007).
Where two headings read alike, the source gives them in different places.

Assays:
[1] = Impact on the content of Inorganic Salt (automatic biochemical analyzer); conditions: 60 minutes of circulatory processing
clotting factor VIII = assay: Impact on the activity of clotting factor VIII (detection kit); conditions: 60-minute circulatory processing
[2] = system: VSV (vesicular stomatitis virus); format: cell-based
VSV = format: cell-based, vesicular stomatitis virus; conditions: for residual virus VSV: 1500 ml plasma, bag with three pressed folded lines
clotting factor IX = assay: Impact on the activity of clotting factor IX (detection kit); conditions: for Activity of factor IX (%): 60 minutes of circulatory processing
Sindbis virus (SV) = format: cell-based
[3] = Impact on the pH value of whole blood; format: physicochemical; conditions: for pH value in whole blood: 60 minutes of circulatory processing
Sindbis = format: cell-based, Sindbis virus
complement C3 = assay: Impact on the content of complement C3 (single-diffusion plate); conditions: 60 minutes of circulatory processing
[4] = system: clotting factors of plasma; assay: Clotting factors before and after processing, automated coagulation analyzer; conditions: 60 minutes of circulatory processing
[5] = Impact on the content of the plasma protein (automatic biochemical analyzer); conditions: 60 minutes of circulatory processing

## CN(C)c1ccc2nc3ccc(=[N+](C)C)cc-3sc2c1 [methylene blue]
[1]
  Ca content: 1.57 mM/l
  Cho content: 3.82 mM/l
  Cl content: 58.7 mM/l
  K content: 3.22 mM/l
  Mg content: 0.67 mM/l
  Na content: 135.1 mM/l
  P content: 1.19 mM/l
Clotting factor VIII
  range of decrease of the activity of clotting factor VIII: less than 20%
[2]; Volume of blood 1000 ml, circulatory time 60 mins
  virus titer left (VSV): ≦−0.5 lg TCID50
[2]; Volume of blood 2000 ml, circulatory time 120 mins
  virus titer left (VSV): ≦−0.5 lg TCID50
VSV; Illumination time 1 h, 50 ml/min
  residual virus VSV: 2.63 Lg TCID50
VSV; Illumination time 2 h, 50 ml/min
  residual virus VSV: −0.13 Lg TCID50
VSV; Illumination time 4 h, 50 ml/min
  residual virus VSV: ≦−0.50 Lg TCID50
VSV; Simulation 1, 1500 ml plasma, 50 ml/min
  reduction of virus titer VSV: over 5.0 Lg TCID50
VSV; illumination path 2.0 m, illumination time 26.0 sec, 50 ml/min
  virus liter left VSV: ≦−0.5 Lg TCID50
VSV; illumination path 2 meter, 26 seconds, 50 ml/min
  VSV illuminated (titer reduction): more than 5 LgTCID50
VSV; illumination path 2.5 m, illumination time 32.5 sec, 50 ml/min
  virus liter left VSV: ≦−0.5 Lg TCID50
VSV; illumination path 3.0 m, illumination time 39.0 sec, 50 ml/min
  virus liter left VSV: ≦−0.5 Lg TCID50
VSV; illumination path 3.5 m, illumination time 45.5 sec, 50 ml/min
  virus liter left VSV: ≦−0.5 Lg TCID50
VSV; illumination path 4.0 m, illumination time 52.0 sec, 50 ml/min
  virus liter left VSV: ≦−0.5 Lg TCID50
VSV; standard 15 cm bag with five pressed folded lines, plasma flowing speed 50
  virus titer left (VSV): ≦−0.50 Lg TCID50
VSV; standard 15 cm bag with five pressed folded lines, plasma flowing speed 80
  virus titer left (VSV): 0.13 Lg TCID50
VSV; standard 15 cm bag with three pressed folded lines, plasma flowing speed 50
  virus titer left (VSV): −0.25 Lg TCID50
VSV; standard 15 cm bag with three pressed folded lines, plasma flowing speed 80
  virus titer left (VSV): 1.50 Lg TCID50
VSV; standard 15 cm cut-through plasma bag, plasma flowing speed 50
  virus titer left (VSV): 4.25 Lg TCID50
VSV; standard 15 cm cut-through plasma bag, plasma flowing speed 80
  virus titer left (VSV): 5.13 Lg TCID50
Clotting factor IX; 60-minute circulatory processing
  range of decrease of the activity of clotting factor IX: about 10%
Clotting factor IX; batch I
  Activity of factor IX (%): 106.1%
Clotting factor IX; batch II
  Activity of factor IX (%): 125.2%
Clotting factor IX; batch III
  Activity of factor IX (%): 89.4%
Sindbis virus (SV)
  virus titer left Sindbis: ≦−0.05 lg TCID50
[3]; batch I
  pH value in whole blood: 7.35
[3]; batch II
  pH value in whole blood: 7.38
[3]; batch III
  pH value in whole blood: 7.36
[3]; processing method of the invention
  change on the pH value of the whole blood: does not cause any change on the pH value
Sindbis
  Sindbis virus illuminated (titer reduction): more than 5 LgTCID50
  reduction of virus titer Sindbis: over 5.0 Lg TCID50
  virus liter left Sindbis: ≦−0.5 Lg TCID50
Complement C3
  reduction of the content of the complement C3 compared to a reference: about 5%
Complement C3; batch I
  content of the complement C3: 5.64 mg/mL
Complement C3; batch II
  content of the complement C3: 5.43 mg/mL
Complement C3; batch III
  content of the complement C3: 5.61 mg/mL
[4]
  APTT clotting time: 74.0 ″
  Clotting factor II clotting time: 25.0 ″
  Clotting factor IX clotting time: 66.7 ″
  Clotting factor V clotting time: 31.8 ″
  Clotting factor VII clotting time: 26.8 ″
  Clotting factor VIII clotting time: 83.6 ″
  Clotting factor X clotting time: 32.6 ″
  Clotting factor XI clotting time: 82.6 ″
  Clotting factor XII clotting time: 70.2 ″
  PT clotting time: 19.6 ″
[4]; versus control plasma
  APTT (reduced): 17.5%
  Clotting factor II (reduced): 1.6%
  Clotting factor IX (reduced): 4.9%
  Clotting factor V (reduced): 8.9%
  Clotting factor VII (reduced): 7.2%
  Clotting factor VIII (reduced): 7.2%
  Clotting factor XI (reduced): 6.7%
  Clotting factor XII (reduced): 3.7%
  PT (reduced): 31.5%
[5]
  Albumin content: 36.1 g/L
  Glucose content: 21.2 mM/l
  Total protein content: 58.8 g/L
  triglyceride content: 1.62 mM/l
